Residues, ends and D or L forms follow the SMILES beside them. *: point of attachment. Tos = Cc1ccc(S(=O)(=O)*)cc1
melting point [°C]	Compound
103 to 104	CCCc1c(SCCCOc2ccc3c(=O)cc(C(=O)OCC)oc3c2CCC)ccc(C(C)=O)c1N
55 to 60	COC(=O)[C@H](Cc1ccc(OCCc2nc(-c3ccccc3)oc2C)cc1)Nc1ccccc1C(=O)c1ccccc1
227 to 229	CN(CCOc1ccc(C=C2SC(=O)NC2=O)cc1)c1nc2ccccc2o1
234 to 236	Cc1nc(N2CCN(c3ccccc3)C2=O)sc1C(=O)NCc1ccccc1
73 to 74	N#Cc1ccc(-c2nc(COc3ccc(CCCn4ccnc4)cc3)co2)s1
116	CC(=O)OCC1OC(F)C(N2C(=O)c3ccccc3C2=O)C(OC(C)=O)C1OC(C)=O (stereo unspecified)
75 to 76	Fc1nc2ccccc2cc1Br
133 to 135	Cc1nc2cc(Cl)ccc2c(=O)n1CCc1ccccc1
145 to 148	CCc1nc2c(cnn2CC)c(NC2CCOCC2)c1CNC(=O)c1cccc(C(=O)NCc2ccc(F)c(-c3cccc(CN4CCCNCC4)c3)c2)c1
193 to 195	c1cc(-c2n[nH]c3c2Cc2ccc(CN4CCSCC4)cc2-3)cs1
72 to 75	CN(C)C(=O)n1cc(C(=O)C2CSC(c3cccnc3)N2)c2ccc(Oc3ccc(F)cc3)cc21 (stereo unspecified)
216 to 219	O=C(Nc1cccc(Cl)c1C(=O)O)c1cccc(F)c1
122	COC(=O)C1(C)CN(C(=O)Nc2ccc(Cl)cc2)N=C1c1ccc(Cl)cc1 (stereo unspecified)
204 to 206	O=C(Nc1ccc2ccc(-c3cccc(Br)c3)nc2n1)c1ccccc1
172	COc1ccc(-c2nc(-c3ccc(OCCO)cc3O)nc(-c3ccc(OCCO)cc3OCCO)n2)cc1
180 to 181	CCOCc1nc2c(N)nc3cccnc3c2n1CCCCN(OC)C(C)=O
71 to 74	CC(C)(C#N)c1cc(Cn2cncn2)cc(-c2ccc(OS(N)(=O)=O)c(Cl)c2)c1
178 to 179	Cc1nc(-c2cccs2)c2nc(-c3ccccc3)cc-2[nH]1
41 to 42	COc1cc(C)c(C)cc1OC
171 to 173	COc1ccc(-c2nnc(C(Cl)(Cl)Cl)o2)cc1OC
162 to 164	Cc1ccc(C#N)c(Nc2ccccc2[N+](=O)[O-])c1
204 to 206	COc1ccc2c(c1)c(SC)c(C(N)=O)n2C
70 to 72	Cc1nnc(-c2cn3c4c(cccc24)CCC3)o1

melting point [°C]	Compound
85 to 87	COC(=O)C1CN(C(=O)OC(C)(C)C)CCN1C(=O)/C=C/c1ccc(Sc2ccc3c(c2)OCCO3)c(C(F)(F)F)c1 (stereo unspecified)
> 300	Cc1nc2cc3[nH]c(-c4ccncc4)nc3cc2s1
160	CCOC(=O)CC1=COc2ccc(O)cc2O1
114 to 115	CCCC(=O)NC[C@@H]1C[C@H]1c1cc(OC)c(Br)cc1Br (relative stereo)
205 to 206	COc1cc(OC)c2c(=O)c(OCCOc3ccc(C(C)=C4SC(=O)NC4=O)cc3)c(-c3ccc(OC)c(OC)c3)oc2c1
175	COc1cc(-c2nc3ccc(OCCN4CCOCC4)cc3n2Cc2ccccc2C(F)(F)F)cc(OC)c1OC
157	CCN(CC)S(=O)(=O)c1cc2oc(-c3ccccc3)nc2c2ccccc12
89 to 94	c1cc(-c2noc(C3CC3)n2)ncn1
144	O=c1[nH]c2cc(F)ccc2n(C(c2ccccc2)c2ccccc2)c1=O
171	Oc1ccc(CSSCc2ccc(O)cc2)cc1
170 to 174	COc1cccc(OC)c1C(=N)N
158 to 161	CS(=O)(=O)N1CCCC(NC(=O)C(CC2CCCC2)NC(=O)c2ccco2)C(=O)C1 (stereo unspecified)
178 to 179	CN1CNC(=S)N(c2ccc(Cl)cc2)C1
176 to 183	Oc1ccc2cc(-c3csc(-c4ccccc4)n3)ccc2c1Br
166	COC(=O)[C@@H]1C(=O)NC[C@H]1c1ccc(Cl)cc1
189 to 190	CS(=O)c1[nH]cc(Cc2ccccc2)c1[N+](=O)[O-] (stereo unspecified)
199 to 200	COc1ccc(N(Cc2cnn(Cc3ccc(C(F)(F)F)cc3)c2)C(=O)C2CCCc3c(O)cccc32)cn1 (stereo unspecified)
123	O=c1[nH]c2ccccc2n1CCN1CCNCC1
200 to 203	CN1c2ccncc2NC(c2ccccc2)c2cccn21 (stereo unspecified)
157 to 161	Cc1ccc(S(=O)(=O)NCC(=O)N[C@@H](Cc2ccccc2)C(=O)O)cc1 (Tos-Gly-Phe-OH)
172	CC(=O)OC1CSC(Oc2ccc(-c3c(C)noc3C)nc2)C(OC(C)=O)C1OC(C)=O (stereo unspecified)
116 to 127	N#Cc1ccc2c(c1)C(=O)c1ccccc1OC2
99 to 102	COc1cc(OC)nc(C(C(=O)NS(C)(=O)=O)C(C)C)n1 (stereo unspecified)

melting point [°C]	Compound
156 to 157	CN1CCC(C)(O)c2cccc(CSc3nc4ccccc4[nH]3)c21 (stereo unspecified)
93 to 96	COC(=O)c1ccc(C(=O)C(=O)c2ccc3c(c2)C(C)(C)CCC3(C)C)cc1
99 to 100	CC(C)NC(=O)Oc1ccc2c(N(C)CCN3CCOCC3)noc2c1
101 to 103	CC1(C)CC(=O)c2c(C3CCCCC3)sc(-c3nccs3)c2C1
114 to 115	Cc1ccc2c(O)cnnc2c1
165	COc1ccc(-c2cc(CO)c(=O)n(Cc3ccc(Cl)cc3)n2)cc1F
111 to 113	CC(O)COc1ccc2c(c1)OC(C)(C)CC2=O (stereo unspecified)
136 to 138	Cc1cc(C)c(Nc2nc(C)ccc2S(=O)(=O)c2ccc(OCc3cccc(F)c3F)cc2)c(C)c1
139	CCCCOc1cc(-c2cc3ccccc3[nH]2)ccc1OCC
161 to 162	COc1cc2nc(C(C)(C)C)sc2cc1NC(=S)N1CCN(CCO)CC1
67 to 68	COC=C(c1cccnc1)C(C)c1ccc(Cl)cc1Cl (stereo unspecified)
149	COc1ccccc1NC(=O)Nc1nc(NC(CC(=O)O)c2ccccc2)nc(Oc2ccc3ccccc3c2)n1 (stereo unspecified)
127	C[C@H](Nc1nc(NC=O)nc([C@@H](C)F)n1)C1CCCCC1
188	COc1ccc(Cc2c(F)cccc2F)c(N(CC(N)=O)S(=O)(=O)c2ccc(OC)c(OC)c2)c1
123 to 125	CN(CCCNC(=O)NCCCOc1cccc(CN2CCCCC2)c1)CCN(Cc1ccc(F)cc1)c1ccccn1
126 to 129	COC(=O)N1CCC(C(C(N)=O)(c2ccc(F)cc2)c2ccc(F)cc2)CC1
70.5 to 71.2	Cc1cc(CCCCCOc2ccc(-c3nc4ccccc4s3)cc2)on1
191 to 193	CN(C)S(=O)(=O)c1cccc(Nc2ncc3cc4ccccc4n3n2)c1
206 to 208	C=CCOc1cc(C(=O)O)cc(N)c1C(=O)c1ccccc1
218 to 220	CC(=O)N1C(=CC(C#N)=C2OC(CO)CN2C)C(=O)c2ccccc21 (stereo unspecified)
92 to 102	CC(=O)OC1CSC(Oc2ccc(C)nc2-c2cccnc2)C(OC(C)=O)C1OC(C)=O (stereo unspecified)
93	O=[N+]([O-])c1cc2c(c([N+](=O)[O-])c1)CCCC2
201	O=C(O)Cc1coc2cc(OCc3cc(-c4ccc(C(F)(F)F)cc4)on3)ccc12

melting point [°C]	Compound
118 to 119	CCN(CC)C(=O)c1nc(/C=C/c2ccc([N+](=O)[O-])o2)no1
102	C=C(C)Cc1c(O)cc(C(C)(C)C)c(OC(C)=O)c1C(C)(C)C
124 to 126	CCOc1ccc2c(c1)CCc1c(C#N)cccc1S2
194	CN1C(=O)C(N)C(=O)N(C23CC4CC(CC(C4)C2)C3)c2ccccc21 (stereo unspecified)
136	Nc1ccc(N2CCN(C(C(=O)NCC(F)(F)F)c3ccccc3)CC2)cc1 (stereo unspecified)
170 to 172	Cc1nc(N2CCN(Cc3ccc(F)cc3)C2=O)sc1C(=O)NCc1csc(C(C)C)n1
252 to 254	Cn1c(C(=O)N(Cc2cc(C(F)(F)F)cc(C(F)(F)F)c2)Cc2cc(C(F)(F)F)cc(C(F)(F)F)c2)c(-c2ccc(F)cc2)c2cccnc2c1=O
132 to 133	COc1ccc(-c2cc(=O)n(CC3CC3)nc2-c2ccc(OC)c(F)c2)cc1
193 to 195	Cc1cccc(-c2nc3cccnn3c2-c2ccnc(NC(=O)NC(C)C)c2)c1
45	Cc1cn(Nc2ccncc2F)c2ccccc12
67 to 69	C#CCN(CC#C)S(=O)(=O)c1cccc2c(N(C)C)cccc12
172 to 173	CN(C1CCN(Cc2csnn2)CC1)S(=O)(=O)c1ccc(Nc2nccc(Nc3ccc(F)c(F)c3)n2)cc1
271	O=C1c2ccccc2S(=O)(=O)c2c1cccc2-c1nnn[nH]1
115 to 118	CCCc1c(OCCCCCOc2ccc(C(C)=O)cc2CCC(=O)O)ccc2c1OCCC2=O
96 to 98	CN(CCCCCCCNC(=NCCCOc1cccc(CN2CCCCC2)c1)NC#N)CCN(Cc1ccc(F)cc1)c1ccccn1
200 to 201	CC1(C)C(=O)Oc2ccc3cc(C(=O)NCC(F)(F)F)c(Cn4cncn4)cc3c21
209	C=CCn1cc(C(=O)O)c(=O)c2cc(F)c(N3CCN(Cc4ccccc4)CC3)cc21
90 to 93	CCON=C(C(C)=NOCc1ccccc1C(=NOC)C(=O)OC)c1ccc(Oc2ccc(Cl)cc2)cc1
176 to 177	Cc1nc2ccccc2c(NCc2ccccc2)c1C(C)O (stereo unspecified)
170 to 172	CC(C)(C)c1ccc(-c2ccc(C(CCC(=O)O)=NO)cc2)cc1
148 to 150	O=P(O)(O)CNCCc1ccccc1

Compound	melting point [°C]
COc1cc(CN2CCN(c3ccccc3F)CC2)ccc1OC(=O)N(C)C	130 to 133
COc1ccc(C2C(Oc3ccccc3)C(=O)N2c2cc(OC)c(OC)c(OC)c2)cc1O (stereo unspecified)	176 to 180
COP(=S)(OC)Oc1nsc(-c2ccccc2)c1C#N	40
CC(=O)Nc1cc([C@H](O)CN[C@H](C)Cc2ccc(O)cc2)ccc1O	97 to 100
COC(=O)C=C1CN=C(c2ccccc2)c2cc(Cl)ccc2N1	167 to 170
Cc1ccc2c3c(ccc2n1)OCC(CN1CCC(C#N)(c2ccccc2)CC1)O3 (stereo unspecified)	185 to 187

From a melting point compilation (Tetko et al.; mined from patent text by program, amines drawn as free bases though some values may be those of a salt)
